Reference: patent publication US20130143929A1, “FUNGICIDAL IMIDAZOLES” (EI DU PONT DE NEMOURS AND COMPANY, priority 2010, published 2013)
Marks after values point to notes of the source that are not given here.

How the values were obtained:
Assay type in all cases: in vivo
[1] = system: Blumeria graminis f. sp. tritici (also known as Erysiphe graminis f. sp. tritici, the causal agent of wheat powdery mildew); assay: Test D: wheat powdery mildew, preventive spray on wheat seedlings, visual disease rating; conditions: for Test D rating (% disease control, wheat powdery mildew): no asterisk: standard test suspension concentration, 100 = 100% disease control, 0 = no control relative to controls; for Test D rating (100 = 100% disease control, 0 = no disease control relative to the controls): wheat powdery mildew, preventive spray on wheat seedlings
Outline: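 Compound suspended in acetone/water (50/50) with 250 ppm Trem 014 and sprayed to run-off on wheat seedlings (200 ppm ≈ 800 g/ha), then inoculated next day with spore dust. Disease rated visually after 8 days at 20 °C as % control relative to untreated plants (0-100).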

[2] = system: Septoria tritici (the causal agent of wheat leaf blotch); assay: Test B: wheat leaf blotch, preventive spray on wheat seedlings, visual disease rating; conditions: for Test B rating (% disease control, wheat leaf blotch): no asterisk: standard test suspension concentration, 100 = 100% disease control, 0 = no control relative to controls; for Test B rating (100 = 100% disease control, 0 = no disease control relative to the controls): wheat leaf blotch, preventive spray on wheat seedlings
Outline: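 Wheat seedlings sprayed to run-off with compound suspension (acetone/water with 250 ppm Trem 014; 200 ppm ≈ 800 g/ha, some at 40 ppm), inoculated next day with Septoria tritici spores. 48 h saturated humidity at 24 °C, then 19 days at 20 °C; visual rating, 100 = full control.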

[3] = system: Puccinia recondite f. sp. tritici (the causal agent of wheat leaf rust); assay: Test A: wheat leaf rust, preventive spray on wheat seedlings, visual disease rating; conditions: for Test A rating (% disease control, wheat leaf rust): no asterisk: standard test suspension concentration, 100 = 100% disease control, 0 = no control relative to controls; for Test A rating (100 = 100% disease control, 0 = no disease control relative to the controls): wheat leaf rust, preventive spray on wheat seedlings
Outline: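 Wheat seedlings were sprayed to run-off with compound suspended in acetone/water containing 250 ppm Trem 014 (200 ppm ≈ 800 g/ha; some at 40 ppm). Puccinia recondite spores were inoculated the next day. Plants were held 24 h saturated at 20° C, then 7 days at 20° C, and disease control was rated visually on a 0–100 scale against controls.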

[4] = system: Botrytis cinerea (the causal agent of tomato Botrytis); assay: Test C: tomato Botrytis, preventive spray on tomato seedlings, visual disease rating; conditions: for Test C rating (% disease control, tomato Botrytis): no asterisk: standard test suspension concentration, 100 = 100% disease control, 0 = no control relative to controls; for Test C rating (100 = 100% disease control, 0 = no disease control relative to the controls): tomato Botrytis, preventive spray on tomato seedlings
Outline: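 Test suspension (acetone/water with 250 ppm Trem 014; 200 ppm equivalent to 800 g/ha) sprayed to run-off on tomato seedlings; B. cinerea spores inoculated next day. After 48 h saturated humidity at 20° C then 3 days at 24° C, disease rated visually as % control relative to untreated controls (0–100).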

[5] = asterisk: 40 ppm test suspension
[6] = no asterisk (standard test suspension concentration, not 40 ppm)

Row | Structure (SMILES) | Test D rating (100 = 100% disease control, 0 = no disease control relative to the controls) [1, 5] | Test B rating (100 = 100% disease control, 0 = no disease control relative to the controls) [2, 5] | Test A rating (100 = 100% disease control, 0 = no disease control relative to the controls) [3, 5] | Test C rating (100 = 100% disease control, 0 = no disease control relative to the controls) [4, 5] | also measured
1 | Cc1nc(Br)c(C(O)c2ccc(F)cc2F)n1-c1ccc(F)cc1Cl (stereo not shown) [compound 399] |  |  |  |  | Test D rating (% disease control, wheat powdery mildew) [1]: 90%; Test B rating (% disease control, wheat leaf blotch) [2]: 100%; Test A rating (% disease control, wheat leaf rust) [3]: 100%; Test C rating (% disease control, tomato Botrytis) [4]: 99%
2 | Cc1nc(Cl)n(-c2c(F)cc(F)cc2F)c1C(O)c1ccc(F)cc1F (stereo not shown) [compound 83] | 100* % | 100* % | 100* % | 99* % | 
3 | Cc1ncc(C(O)c2ccc(F)cc2Br)n1-c1ccc(F)cc1F (racemic) [compound 301] | 0* % | 19* % | 97* % | 24* % | 
4 | COc1ccc(C(O)c2c(Br)nc(C)n2-c2ccc(F)cc2F)c(Cl)c1 (racemic) [compound 285] | 0* % | 88* % | 99* % | 0* % | 
5 | Cc1nc(Cl)n(-c2ccc(F)cc2Br)c1C(O)c1ccc(Cl)cc1Cl (racemic) [compound 11] |  |  |  |  | Test D rating (100 = 100% disease control, 0 = no disease control relative to the controls) [1, 6]: 0%; Test B rating (100 = 100% disease control, 0 = no disease control relative to the controls) [2, 6]: 68%; Test A rating (100 = 100% disease control, 0 = no disease control relative to the controls) [3, 6]: 99%; Test C rating (100 = 100% disease control, 0 = no disease control relative to the controls) [4, 6]: 31%
6 | Cc1cc(Cl)ccc1C(O)c1c(Br)nc(C)n1-c1c(F)cccc1F (stereo not shown) [compound 161] | 84* % | 100* % | 92* % | 94* % | 
7 | Cc1cc(F)ccc1C(O)c1c(Br)nc(C)n1-c1c(F)cc(F)cc1Br (stereo not shown) [compound 408] |  |  |  |  | Test D rating (% disease control, wheat powdery mildew) [1]: 56%; Test B rating (% disease control, wheat leaf blotch) [2]: 100%; Test A rating (% disease control, wheat leaf rust) [3]: 100%; Test C rating (% disease control, tomato Botrytis) [4]: 99%
8 | Cc1nc(Cl)n(-c2c(F)cccc2Br)c1C(O)c1ccc(F)cc1Cl (stereo not shown) [compound 207] | 81* % | 100* % | 100* % | 100* % | 
9 | Cc1nc(Cl)n(-c2ccc(Cl)cc2Cl)c1C(O)c1c(F)ccc(Br)c1Cl (racemic) [compound 37] |  |  |  |  | Test D rating (100 = 100% disease control, 0 = no disease control relative to the controls) [1, 6]: 21%; Test B rating (100 = 100% disease control, 0 = no disease control relative to the controls) [2, 6]: 100%; Test A rating (100 = 100% disease control, 0 = no disease control relative to the controls) [3, 6]: 98%; Test C rating (100 = 100% disease control, 0 = no disease control relative to the controls) [4, 6]: 91%
10 | COc1ccc(C(O)c2c(C)nc(Cl)n2-c2c(F)cccc2Cl)c(C)c1 (stereo not shown) [compound 212] | 97* % | 100* % | 100* % | 100* % | 
11 | Cc1ncc(C(O)c2c(F)cc(F)cc2F)n1-c1ccc(F)cc1Br (stereo not shown) [compound 174] |  |  |  |  | Test D rating (100 = 100% disease control, 0 = no disease control relative to the controls) [1, 6]: 0%; Test B rating (100 = 100% disease control, 0 = no disease control relative to the controls) [2, 6]: 35%; Test A rating (100 = 100% disease control, 0 = no disease control relative to the controls) [3, 6]: 88%; Test C rating (100 = 100% disease control, 0 = no disease control relative to the controls) [4, 6]: 0%
12 | COc1ccc(C(O)c2c(Cl)nc(C)n2-c2c(F)cccc2F)c(Cl)c1 (stereo not shown) [compound 143] | 99* % | 100* % | 100* % | 99* % | 
13 | Cc1cccc(Br)c1-n1c(C)nc(Br)c1C(O)c1ccc(F)cc1F (stereo not shown) [compound 337] | 0* % | 86* % | 86* % | 71* % | 
